According to patent US20240316019A1 (Bayer Aktiengesellschaft, priority 2023, published 2024):

System: patients with acute non-cardioembolic ischemic stroke
Conditions: 50 mg daily
Experimental: All participants were required to undergo at least two MRIs that met study requirements. In addition to the baseline MRI (obtained after the index stroke either before randomization or within 72 h after randomization), participants underwent a final study MRI at 26 weeks or as soon as possible after early termination of assigned study treatment. Patients were followed up for at least 26 weeks and up to 52 weeks and assessed for the occurrence of safety, efficacy, and adverse events at 2, 4, 8, 13, 20, 26, 32, 39, 46, and 52 (end of treatment) weeks after randomization, and again 2 weeks after the end of treatment visit. Adherence to assigned therapy was assessed by means of interview and pill count at each clinic visit.
The primary safety outcome was the composite of major bleeding and clinically relevant non-major bleeding, according to the criteria of the International Society on Thrombosis and Haemostasis (ISTH). […] Additional prespecified exploratory safety outcomes included haemorrhagic transformation within the qualifying stroke detected by baseline MRI performed post-study drug or on follow-up study MRIs based on the Heidelberg classification of severity (haemorrhagic infarct 1 or 2 or parenchymal haematoma 1 or 2). […]

Question: Which results are given for `CC[C@@H](C(=O)Nc1ccc(C(N)=O)c(F)c1)n1cc(OC)c(-c2cc(Cl)ccc2-n2cc(C(F)(F)F)nn2)cc1=O` [Compound A, (4S)-2^4-chloro-4-ethyl-7^3-fluoro-3^5-methoxy-3^2,5-dioxo-14-(trifluoromethyl)-3^2H-6-aza-3(4,1)-pyridina-1(1)-[1,2,3]triazola-2(1,2),7(1)-dibenzenaheptaphane-7^4-carboxamide]?
Answer: Primary intracerebral haemorrhages, % participants: 1%; Primary intracerebral haemorrhages, n participants: three
